Source: PubChem BioAssay AID1259407 (Chemical Carcinogenesis Research Information System (CCRIS), 2018)
Activity calls are given as the source filed them. How the calls were made is not given here.

Test system: CCRIS mutagenicity, Ames/micronucleus/aberration tests
Test: CCRIS mutagenicity studies
Details: Test System: AMES SALMONELLA TYPHIMURIUM
[1] = Strain/Indicator: TA98, Metabolic Activation: NONE, Method: STANDARD PLATE
[2] = Strain/Indicator: TA100, Metabolic Activation: NONE, Method: STANDARD PLATE

SMILES: CN(C)N=Nc1ccc(Br)cc1
- mutagenic call (Strain/Indicator: TA92, Metabolic Activation: MOUSE, LIVER, S-9, POLYCHLORINATED BIPHENYLS, Method: PREINCUBATION): inactive; negative
- mutagenic call (Strain/Indicator: TA92, Metabolic Activation: MOUSE, LIVER, S-9, POLYCHLORINATED BIPHENYLS, Method: STANDARD PLATE): inactive; negative
- mutagenic call (Strain/Indicator: TA92, Metabolic Activation: NONE, Method: STANDARD PLATE): inactive; negative
- mutagenic call (Strain/Indicator: TA97, Metabolic Activation: MOUSE, LIVER, S-9, POLYCHLORINATED BIPHENYLS, Method: PREINCUBATION): inactive; negative
- mutagenic call (Strain/Indicator: TA97, Metabolic Activation: MOUSE, LIVER, S-9, POLYCHLORINATED BIPHENYLS, Method: STANDARD PLATE): inactive; negative
- mutagenic call (Strain/Indicator: TA97, Metabolic Activation: NONE, Method: STANDARD PLATE): inactive; negative
- mutagenic call (Strain/Indicator: TA98, Metabolic Activation: MOUSE, LIVER, S-9, POLYCHLORINATED BIPHENYLS, Method: PREINCUBATION): active; positive
- mutagenic call (Strain/Indicator: TA98, Metabolic Activation: MOUSE, LIVER, S-9, POLYCHLORINATED BIPHENYLS, Method: STANDARD PLATE): inactive; negative
- mutagenic call [1]: inactive; negative
- mutagenic call (Strain/Indicator: TA100, Metabolic Activation: MOUSE, LIVER, S-9, POLYCHLORINATED BIPHENYLS, Method: PREINCUBATION): inactive; negative
- mutagenic call (Strain/Indicator: TA100, Metabolic Activation: MOUSE, LIVER, S-9, POLYCHLORINATED BIPHENYLS, Method: STANDARD PLATE): inactive; negative
- mutagenic call [2]: inactive; negative
- mutagenic call (Strain/Indicator: TA1535, Metabolic Activation: MOUSE, LIVER, S-9, POLYCHLORINATED BIPHENYLS, Method: PREINCUBATION): active; positive
- mutagenic call (Strain/Indicator: TA1535, Metabolic Activation: MOUSE, LIVER, S-9, POLYCHLORINATED BIPHENYLS, Method: STANDARD PLATE): inactive; negative
- mutagenic call (Strain/Indicator: TA1535, Metabolic Activation: NONE, Method: STANDARD PLATE): inactive; negative
- mutagenic call (Strain/Indicator: TA1537, Metabolic Activation: MOUSE, LIVER, S-9, POLYCHLORINATED BIPHENYLS, Method: PREINCUBATION): active; positive
- mutagenic call (Strain/Indicator: TA1537, Metabolic Activation: MOUSE, LIVER, S-9, POLYCHLORINATED BIPHENYLS, Method: STANDARD PLATE): active; positive
- mutagenic call (Strain/Indicator: TA1537, Metabolic Activation: NONE, Method: STANDARD PLATE): active; positive
- mutagenic call (Strain/Indicator: TA1538, Metabolic Activation: MOUSE, LIVER, S-9, POLYCHLORINATED BIPHENYLS, Method: PREINCUBATION): inactive; negative
- mutagenic call (Strain/Indicator: TA1538, Metabolic Activation: MOUSE, LIVER, S-9, POLYCHLORINATED BIPHENYLS, Method: STANDARD PLATE): active; positive
- mutagenic call (Strain/Indicator: TA1538, Metabolic Activation: NONE, Method: STANDARD PLATE): inactive; negative

SMILES: CC1=CCC(O)(C(C)C)CC1 (configuration not stated)
- mutagenic call [1]: inactive; negative
- mutagenic call (Strain/Indicator: TA98, Metabolic Activation: RAT, LIVER, S-9, Method: STANDARD PLATE): inactive; negative
- mutagenic call [2]: inactive; negative
- mutagenic call (Strain/Indicator: TA100, Metabolic Activation: RAT, LIVER, S-9, Method: STANDARD PLATE): inactive; negative
- mutagenic call (Strain/Indicator: TA102, Metabolic Activation: NONE, Method: STANDARD PLATE): inactive; negative
- mutagenic call (Strain/Indicator: TA102, Metabolic Activation: RAT, LIVER, S-9, Method: STANDARD PLATE): inactive; negative
